Values joined by “and” are separate entries in the source; they are usually repeats but may differ in a detail not shown here. Equal values may be shown once.
Tests used:
[1] = target: Muscarinic acetylcholine receptor M1 (Homo sapiens) (UniProt P11229); assay: Agonist activity at human mAChR1 receptor expressed in F1pIn CHO cells assessed as induction of intracellular calcium mobilization
[2] = target: Muscarinic acetylcholine receptor M1 (Homo sapiens) (UniProt P11229); assay: Displacement of [3H]NMS from human mAChR1 receptor expressed in F1pIn CHO cells after 60 mins by scintillation counting analysis
[3] = target: Muscarinic acetylcholine receptor M1 (Homo sapiens) (UniProt P11229); assay: Partial agonist activity at human mAChR1 receptor expressed in F1pIn CHO cells assessed as induction of intracellular calcium mobilization

Chain of Muscarinic acetylcholine receptor M1 (Homo sapiens) (P11229 whole entry, looked up): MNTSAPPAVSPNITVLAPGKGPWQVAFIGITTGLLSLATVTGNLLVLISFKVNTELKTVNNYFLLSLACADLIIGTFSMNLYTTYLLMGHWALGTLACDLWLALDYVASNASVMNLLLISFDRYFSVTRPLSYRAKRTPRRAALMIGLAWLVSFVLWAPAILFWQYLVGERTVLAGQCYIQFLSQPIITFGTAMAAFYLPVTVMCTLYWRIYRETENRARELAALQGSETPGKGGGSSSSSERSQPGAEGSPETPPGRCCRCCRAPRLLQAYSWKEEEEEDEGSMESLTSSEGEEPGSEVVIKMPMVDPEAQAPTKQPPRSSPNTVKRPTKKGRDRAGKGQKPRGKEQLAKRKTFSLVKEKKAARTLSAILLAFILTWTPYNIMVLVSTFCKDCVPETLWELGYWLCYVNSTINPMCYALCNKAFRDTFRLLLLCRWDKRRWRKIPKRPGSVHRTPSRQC

## O=C(Cc1ccccc1)NC1CCN(CCCN2C(=O)COc3ccccc32)CC1 [N-{1-[3-(3-Oxo-2,3-dihydrobenzo[1,4]oxazin-4-yl)propyl]-piperidin-4-yl}-2-phenylacetamide]
[1]
  EC50: 129 nM
[2]
  IC50: 8.53 µM and 8.51 µM

## O=C1COc2ccccc2N1CCCN1CCN(c2cccc(Cl)c2Cl)CC1
[2]
  IC50: 1.86 µM and 1.87 µM

## O=C1COc2ccccc2N1CCCN1CCN(c2nsc3ccccc23)CC1
[3]
  EC50: 1040 nM and 1050 nM
[2]
  IC50: 4.19 µM and 4.17 µM

## O=C1COc2ccccc2N1CCCN1CCC(c2noc3cc(F)ccc23)CC1
[2]
  IC50: 3.25 µM and 3.24 µM

## COc1ccccc1N1CCN(CCCN2C(=O)COc3ccccc32)CC1
[2]
  IC50: 5.18 µM and 5.13 µM

## O=C1COc2ccccc2N1CCCN1CCN(c2cccc3[nH]c(=O)oc23)CC1
[2]
  IC50: 4.27 µM and 4.26 µM

— BindingDB's records for doi:10.1021/jm5013243 (Monash University (Parkville Campus), 2015)
